From patent US20110092476A1, “Bicycloheteroaryl compounds as P2X7 modulators and uses thereof” (Renovis, Inc., priority 2006, published 2011)
Converted amounts (≈) assume the structure as drawn. Where two headings read alike, the source gives them in different places.

Experiments:
P2X7 receptor = target: T1, P2X7 receptor (Homo sapiens, UniProt Q99572); assay: IL-1β release assay in differentiated THP-1 cells stimulated with BzATP (Example 9); format: cell-based; conditions: BzATP 250 uM; for inhibition at 0.3 µM: differentiated THP-1 cells, read-out: IL-1β % Inhib. @ 0.3 or 0.1 uM
T1 construct: host or cells: THP-1 cells differentiated with LPS and IFN-γ
T1 sequence (Q99572 1-595): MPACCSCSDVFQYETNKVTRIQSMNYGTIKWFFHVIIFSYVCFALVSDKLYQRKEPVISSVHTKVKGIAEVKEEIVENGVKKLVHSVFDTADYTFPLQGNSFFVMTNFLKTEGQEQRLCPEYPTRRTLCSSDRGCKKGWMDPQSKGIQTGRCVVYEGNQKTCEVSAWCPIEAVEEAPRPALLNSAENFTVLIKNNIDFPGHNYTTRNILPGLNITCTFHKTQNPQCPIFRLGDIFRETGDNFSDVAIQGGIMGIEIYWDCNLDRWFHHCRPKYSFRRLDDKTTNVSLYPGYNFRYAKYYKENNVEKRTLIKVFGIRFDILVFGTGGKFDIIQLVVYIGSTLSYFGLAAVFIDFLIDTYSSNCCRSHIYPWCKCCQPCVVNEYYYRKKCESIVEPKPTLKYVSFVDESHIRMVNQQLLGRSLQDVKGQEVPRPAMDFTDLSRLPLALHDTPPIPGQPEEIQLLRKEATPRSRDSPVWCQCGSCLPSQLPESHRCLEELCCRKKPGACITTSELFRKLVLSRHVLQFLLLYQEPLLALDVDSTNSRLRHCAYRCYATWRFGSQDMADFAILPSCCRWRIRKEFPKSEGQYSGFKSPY
Method in brief: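 THP-1 cells differentiated 16 h with 100 ng/mL LPS and 100 ng/mL IFN-γ, primed 2 h with fresh LPS, pretreated 30 min with compound, then stimulated 45 min with 250 uM BzATP (final). Supernatant IL-1β measured by ELISA; background-adjusted percent inhibition fitted to a four-parameter logistic for IC50.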

[1] = Pharmacokinetic evaluation following intravenous and oral administration in rats (oral bioavailability); format: in vivo, rat; conditions: male Sprague-Dawley rats, PO 1 to 5 mg/kg vs IV 1 mg/kg, AUCinf dose-normalized
Method: Male Sprague-Dawley rats are acclimatized for at least 24 hours prior to experiment initiation. During acclimation period, all animals receive food and water ad libitum. However, food but not water is removed from the animal's cages at least 12 hours before initiation of the experiment. During the first 3 hours of experimentation, the animals receive only water ad libitum. At least three animals each are tested for intravenous and oral dosage. For intravenous formulation, compounds were dissolved (0.25 to 1 mg/mL) in a mixture of 3% dimethyl sulfoxide, 40% PEG 400 and the rest percentage of 40% Captisol in water (w/v). The animals are weighed before dosing. The determined body weight is used to calculate the dose volume for each animal.
Dose volume (mL/kg)=1 mg/kg/formulation concentration (mg/mL)
In instances where the formulation concentrations were less than 0.5 mg/mL, the dosing volume is about 2 mL/kg.
PO rats are typically dosed through oral gavage following the same dose volume formula as IV to achieve a dose level of 1 to 5 mg/kg. […] About 250 uL of blood is obtained at each time point from the animal. Equal volumes of 0.9% normal saline are replaced to prevent dehydration. The whole blood samples are maintained on ice until centrifugation. Blood samples are then centrifuged at 14,000 rpm for 10 minutes at 4° C. and the upper plasma layer transferred into a clean vial and stored at −80° C. The resulting plasma samples are then analyzed by liquid chromatography-tandem mass spectrometry. Following the measurement of plasma samples and dosing solutions, plasma concentration-time curve is plotted. Plasma exposure is calculated as the area under the concentration-time curve extrapolated to time infinite (AUinf). The AUCinf is averaged and the oral bioavailability (% F) for individual animal is calculated as:
AUCinf (PO)/AUCinf (IV), normalized to their respective dose levels. The % F is reported as the mean % F of all animals dosed orally with the compound of the invention at the specified level (see Table 4 below).
For the purpose of Table 4, oral bioavailability of each compound is expressed as follows: […]

[2] = Half-life in human liver microsomes (HLM); conditions: pH 7.4
Method: Test compounds (1 μM) are incubated with 3.3 mM MgCl2 and 0.78 mg/mL HLM (HL101) in 100 mM potassium phosphate buffer (pH 7.4) at 37° C. on the 96-deep well plate. The reaction mixture is split into two groups, a non-P450 and a P450 group. NADPH is only added to the reaction mixture of the P450 group. An aliquot of samples of P450 group is collected at 0, 10, 30, and 60 min time point, where 0 min time point indicated the time when NADPH is added into the reaction mixture of P450 group. […] Collected aliquots are extracted with acetonitrile solution containing an internal standard. […] The compound concentration in supernatant is measured by LC/MS/MS system.
The half-life value is obtained by plotting the natural logarithm of the peak area ratio of compounds/internal standard versus time. The slope of the line of best fit through the points yields the rate of metabolism (k). This is converted to a half-life value using following equations:

[3] = Determination of aqueous (kinetic) solubility; format: physicochemical; conditions: aqueous buffer, kinetic from dmso stock, buffer pH 7.4
Method: The mixture was vortexed for 1 hour and equilibrated overnight at room temperature. The mixture was filtered through a saturated filter and the filtrate was analyzed by LC/MS/MS.
For the purpose of Table 5, solubility of each compound is expressed as follows: […]

Row | inhibition at 0.3 µM (P2X7 receptor; 0.3 μM compound (symbols +)) [%] | Oral Bioavailability F (%) [1] | half-life at 1 μM [2] [h] | solubility [3] [µM] | inhibition at 0.3 µM (P2X7 receptor; 0.3 μM compound, "+" symbols) [%] | IC50 (P2X7 receptor; THP-1 cells, IL-1β by ELISA) [nM] | inhibition at 0.3 µM (P2X7 receptor; "+" symbols = compound at 0.3 μM) [%] | Compound
1 | 26 to 50 | ++++ (>75% F) | 1.97 |  |  |  |  | O=C(Cc1ccc(Cl)cc1)Nc1cccc2c(=O)n(CCO)ccc12 [Compound 4]
2 | > 76 | + (0-25% F) | 1.41 |  |  |  |  | O=C(Cc1ccc(Cl)c(Cl)c1)Nc1cccc2c(=O)n(CCO)ccc12 [Compound 8]
3 | > 76 | + (0-25% F) | 0.37 | < 25 |  |  |  | O=C(CCc1cc(C(F)(F)F)ccc1C(F)(F)F)Nc1cccc2c(=O)n(CCO)ccc12 [Compound 62]
4 | > 76 | + (0-25% F) | 0.72 | > 75 |  |  |  | O=C(Cc1ccc(Cl)c(C(F)(F)F)c1)Nc1cccc2c(=O)n(C(CO)CO)ccc12 [Compound 81, 2-(4-Chloro-3-trifluoromethyl-phenyl)-N-[2-(2-hydroxy-1-hydroxymethyl-ethyl)-1-oxo-1,2-dihydro-isoquinolin-5-yl]-acetamide]
5 |  |  | 7.37 |  | > 76 |  |  | O=C(Cc1ccc(Cl)c(C(F)(F)F)c1)Nc1cccc2c(=O)n(C[C@@H]3CCCN3)ccc12 [Compound 232, 2-(4-Chloro-3-trifluoromethyl-phenyl)-N-(1-oxo-2-(S)-1-pyrrolidin-2-ylmethyl-1,2-dihydro-isoquinolin-5-yl)-acetamide]
6 |  | + (0-25% F) | 0.97 |  | > 76 |  |  | C[C@@H](C(N)=O)n1ccc2c(NC(=O)Cc3ccc(Cl)c(Cl)c3)cccc2c1=O [Compound 236, (S)-2-{5-[2-(3,4-Dichloro-phenyl)-acetylamino]-1-oxo-1H-isoquinolin-2-yl}-propionamide]
7 |  | + (0-25% F) | 1.59 |  | > 76 |  |  | C[C@H](C(N)=O)n1ccc2c(NC(=O)Cc3ccc(Cl)c(C(F)(F)F)c3)cccc2c1=O [Compound 238, (R)-2-{5-[2-(4-Chloro-3-trifluoromethyl-phenyl)-acetylamino]-1-oxo-1H-isoquinolin-2-yl}-propionamide]
8 |  | ++ (26-50% F) | 2.11 |  | > 76 |  |  | CC(C(=O)Nc1cccc2c(=O)n([C@H](C)C(N)=O)ccc12)c1ccc(Cl)cc1 (stereo partly drawn) [Compound 247]
9 |  |  | 0.9 | > 75 | > 76 |  |  | NC(=O)[C@H](CO)n1ccc2c(NC(=O)Cc3ccc(Cl)c(C(F)(F)F)c3)cccc2c1=O [Compound 250, (S)-2-{5-[2-(4-Chloro-3-trifluoromethyl-phenyl)-acetylamino]-1-oxo-1H-isoquinolin-2-yl}-3-hydroxy-propionamide]
10 |  | + (0-25% F) | 1.46 | 26 to 50 (≈ 11.2 to 21.6 µg/mL) | > 76 |  |  | CC(C(=O)Nc1cccc2c(=O)n([C@H](C)C(N)=O)ccc12)c1ccc(Cl)c(Cl)c1 (stereo partly drawn) [Compound 254]
11 |  | + (0-25% F) | 1.29 | < 25 | > 76 |  |  | C[C@H](C(N)=O)n1ccc2c(NC(=O)Cc3ccc(Cl)cc3)cccc2c1=O [Compound 256]
12 |  | ++ (26-50% F) | 2.31 | > 75 | > 76 |  |  | C[C@H](C(=O)Nc1cccc2c(=O)n([C@H](C)C(N)=O)ccc12)c1ccc(Cl)cc1 [Compound 263]
13 |  | ++ (26-50% F) | 0.97 | 26 to 50 (≈ 10.3 to 19.9 µg/mL) | > 76 |  |  | C[C@H](C(=O)Nc1cccc2c(=O)n([C@@H](C)C(N)=O)ccc12)c1ccc(Cl)cc1 [Compound 265]
14 |  | ++ (26-50% F) | 1.28 | 51 to 75 (≈ 23.8 to 34.9 µg/mL) | > 76 |  |  | CC(C(=O)Nc1cccc2c(=O)n([C@H](C)C(N)=O)ccc12)c1ccc(Cl)c(C(F)(F)F)c1 (stereo partly drawn) [Compound 267, (R)-2-{5-[2-(4-Chloro-3-trifluoromethyl-phenyl)-propionylamino]-1-oxo-1H-isoquinolin-2-yl}-propionamide]
15 |  | ++ (26-50% F) | 1.36 | 51 to 75 (≈ 22 to 32.4 µg/mL) | > 76 |  |  | C[C@H](C(=O)Nc1cccc2c(=O)n([C@H](C)C(N)=O)ccc12)c1ccc(Cl)c(Cl)c1 [Compound 268]
16 |  | ++ (26-50% F) | 0.93 | 26 to 50 (≈ 11.2 to 21.6 µg/mL) | > 76 |  |  | C[C@H](C(N)=O)n1ccc2c(NC(=O)[C@H](C)c3ccc(Cl)c(Cl)c3)cccc2c1=O [Compound 269]
17 |  | ++ (26-50% F) | 1.24 |  | > 76 |  |  | C[C@H](C(N)=O)n1ccc2c(NC(=O)Cc3cccc(C(F)(F)F)c3F)cccc2c1=O [Compound 285]
18 |  | + (0-25% F) | 1.64 |  | > 76 |  |  | C[C@H](C(N)=O)n1ccc2c(NC(=O)Cc3ccc(Cl)cc3F)cccc2c1=O [Compound 290]
19 |  | + (0-25% F) | 3.35 | < 25 | > 76 |  |  | C[C@H](C(N)=O)n1ccc2c(NC(=O)Cc3ccc(C(F)(F)F)cc3)cccc2c1=O [Compound 298]
20 |  | +++ (51-75% F) | 1.22 |  | > 76 |  |  | C[C@H](CO)n1ccc2c(NC(=O)Cc3ccc(C(F)(F)F)cc3)cccc2c1=O [Compound 319]
21 |  | + (0-25% F) | 1.16 |  | > 76 |  |  | C[C@H](C(N)=O)n1ccc2c(NC(=O)Cc3cccc(C(F)(F)F)c3F)c(Cl)ccc2c1=O [Compound 342]
22 |  | ++ (26-50% F) | 0.97 |  | > 76 |  |  | C[C@H](CO)n1ccc2c(NC(=O)Cc3ccc(Cl)c(C(F)(F)F)c3)cccc2c1=O [Compound 362]
23 |  | ++++ (>75% F) | 3.15 |  | > 76 |  |  | C[C@H](CO)n1ccc2c(NC(=O)Cc3ccc(C(F)(F)F)cc3)c(Cl)ccc2c1=O [Compound 364]
24 |  | + (0-25% F) | 0.55 |  | > 76 |  |  | CC(C)(CO)n1ccc2c(NC(=O)Cc3ccc(Cl)c(C(F)(F)F)c3)cccc2c1=O [Compound 369, 2-(4-Chloro-3-trifluoromethyl-phenyl)-N-[2-(2-hydroxy-1,1-dimethyl-ethyl)-1-oxo-1,2-dihydro-isoquinolin-5-yl]-acetamide]
25 |  | +++ (51-75% F) | 1.34 |  | > 76 |  |  | C[C@H](CO)n1ccc2c(NC(=O)Cc3ccc(Cl)c(F)c3)c(Cl)ccc2c1=O [Compound 382]
26 |  |  |  | > 75 |  | 5.38 | > 76 | Cc1ccc2c(=O)n([C@H](C)CO)ccc2c1NC(=O)Cc1ccc(Cl)c(F)c1 [Compound 398]
